The structures appear in SMILES notation. Like-named read-outs stand apart in the source and are kept apart here.

Assay [1] addresses T1, human CB1 receptor (Homo sapiens, UniProt P21554).
T1 construct: host or cells: CHO-K1
The assay can be described thus: CB1 radioligand competitive binding assay ([3H]CP 55,940 displacement).

Assay [2] has as its target T2, human CB2 receptor (Homo sapiens, UniProt P34972).
T2 construct: host or cells: CHO-K1
The assay can be described thus: CB2 radioligand competitive binding assay ([3H]CP 55,940 displacement). The conditions noted are these: for Selectivity CB2: fold difference in selectivity between CB1 and CB2 binding, in the column of the receptor with the higher binding affinity. The protocol: Compounds of the present disclosure were tested for CB1 receptor binding affinity and for CB2 receptor binding affinity. As used herein, “binding affinity” is represented by the IC50 value, which was experimentally determined as described herein. The lower the IC50 value the higher the binding affinity. A compound of the present disclosure may be said to have “binding selectivity” if it has a higher binding affinity for one receptor compared to the other.
The membranes were prepared from CHO-K1 (Chinese hamster ovary) cells stably transfected with the human CB2 receptor (Cat. #ES-111-C; Perkin Elmer, Boston, Mass.). The cells were grown adherently and maintained in Ham's F12 medium containing 10% fetal bovine serum (FBS), penicillin, streptomycin and geneticin (G418) at 37° C. in a humid atmosphere of 5% CO2 following the manufacturer's instructions.
For membrane preparation the cells were washed with PBS and scraped off the plates in cold homogenization buffer (25 mM HEPES (pH 7.4), 2 mM EDTA) containing protease inhibitor cocktail (Sigma Cat. #P8340). The cell suspension was homogenized with a Pro-PK-01200D Polytron Homogenizer (Pro Scientific) and then centrifuged for 30 min at 120,000×g. The supernatant was discarded and the pellet was re-suspended in the homogenization buffer and stored at −80° C. until the time of use.
In this experiment, 3H radiolabeled CP 55,940, i.e. [3H]CP 55,940 (Perkin Elmer, Boston, Mass.), was used as a radioligand for the CB2 receptor to determine the binding affinity of compounds for the CB2 receptor (Scheme 5; above).
The competition binding experiments (single dose and dose-response) were performed by incubating 0.6 nM of [3H]CP55,940 (specific activity 101 Ci/mmol, Perkin Elmer) and different concentrations of compounds disclosed herein with membranes prepared as above from CHO-K1 cells expressing human CB2 receptor (1 μg of protein/well), 50 mM Tris-HCl (pH 7.4), 5 mM MgCl2, 1 mM CaCl2, and 2 mg/mL BSA.
For the single dose experiments, the compound stocks (usually 10 mM in DMSO) were diluted to working stocks in the binding buffer to give the final compound concentrations of 10 μM and 1 μM. For the dose-response experiments the test compounds were sequentially diluted to provide the desired concentration range for the IC50 determination. In each case the compounds were pre-incubated with the membrane for 20 min, before adding the radioligand.
After incubation with the radioligand for 60 min at 37° C., the incubation was terminated by rapid filtration of assay mixture through MultiScreen®HTS+96-well filter plates (Millipore, Cat. #MSFCNXB), pre-soaked for 60 min with 50 mM Tris-HCl (pH 7.4) containing 0.33% polyethylenimine (PEI). The nonspecific binding (NSB) was determined in the presence of 10 μM unlabelled CP55,940. After drying the filter plate at 50° C. for at least 60 min, the filter-bound radioactivity was determined by scintillation spectrometry using the 1450 MicroBeta Plate Counter (Perkin Elmer, Boston, Mass.). From the dose-response experiments, the IC50 values were determined (see Table 1, CB2 IC50).

Where [3] appears, read: 0.8 nM [3H]CP 55,940, membranes of CHO-K1 cells expressing human CB1 receptor, read-out: CB1 IC50.
Where [4] appears, read: 0.6 nM [3H]CP55,940, membranes of CHO-K1 cells expressing human CB2 receptor, read-out: CB2 IC50.

T2 sequence (P34972 whole entry): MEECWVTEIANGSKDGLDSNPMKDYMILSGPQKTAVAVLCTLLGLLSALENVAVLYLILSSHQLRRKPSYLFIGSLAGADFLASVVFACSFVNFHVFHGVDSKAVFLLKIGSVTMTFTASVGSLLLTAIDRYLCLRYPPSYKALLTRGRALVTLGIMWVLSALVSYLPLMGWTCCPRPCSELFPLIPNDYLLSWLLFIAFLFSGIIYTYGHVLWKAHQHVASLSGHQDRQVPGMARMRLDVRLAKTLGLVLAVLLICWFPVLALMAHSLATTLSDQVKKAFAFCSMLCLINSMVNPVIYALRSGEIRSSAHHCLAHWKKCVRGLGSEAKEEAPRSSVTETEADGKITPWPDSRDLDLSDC
T1 sequence (P21554 whole entry): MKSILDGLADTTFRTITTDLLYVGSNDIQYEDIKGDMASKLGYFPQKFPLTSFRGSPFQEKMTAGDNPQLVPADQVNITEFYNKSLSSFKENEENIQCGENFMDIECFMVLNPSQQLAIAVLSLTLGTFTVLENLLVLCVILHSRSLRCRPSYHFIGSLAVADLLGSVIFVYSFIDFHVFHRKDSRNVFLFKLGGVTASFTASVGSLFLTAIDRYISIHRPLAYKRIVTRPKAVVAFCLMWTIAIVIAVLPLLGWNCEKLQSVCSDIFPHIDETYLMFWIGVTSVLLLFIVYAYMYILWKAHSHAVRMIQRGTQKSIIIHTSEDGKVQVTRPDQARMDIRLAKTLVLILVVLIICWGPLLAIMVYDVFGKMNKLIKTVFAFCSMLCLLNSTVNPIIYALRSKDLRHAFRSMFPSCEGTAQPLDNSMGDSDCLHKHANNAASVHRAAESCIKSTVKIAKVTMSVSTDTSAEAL

As to `CCCCCc1cc(O)c(C/C=C(\C)CCC=C(C)C)c2c1C(=O)OCO2` [Compound 1, 8-(3,7-dimethylocta-2,6-dien-1-yl)-7-hydroxy-5-pentyl-4H-benzo[d][1,3]dioxin-4-one], the figures for the 50% inhibitory concentration (IC50) in assay [1] (setting [3]) and in assay [2] (setting [4]) were more than 5 µM and 1 to 2.49 µM, respectively. The “Selectivity CB2” value in assay [2] came out at 4.07 fold.
Regarding `CCCCCc1cc(O)c(C/C=C(\C)CCC=C(C)C)c2c1C(=O)OC(c1ccccc1)O2` (stereo not drawn) [Compound 3, 8-(3,7-dimethylocta-2,6-dien-1-yl)-7-hydroxy-5-pentyl-2-phenyl-4H-benzo[d][1,3]dioxin-4-one], the IC50 in assay [1] and in assay [2] was 1 to 2.49 µM throughout. Moreover, the “Selectivity CB2” value in assay [2] was 1.19 fold.
For the compound `CCCCCc1cc(O)c(C/C=C(\C)CCC=C(C)C)c2c1C(=O)OC(C)(COC)O2` (stereo not drawn) [Compound 11, 8-(3,7-dimethylocta-2,6-dien-1-yl)-7-hydroxy-2-(methoxymethyl)-2-methyl-5-pentyl-4H-benzo[d][1,3]dioxin-4-one], the IC50 in assay [1] was 2.5 to 4.99 µM; in assay [2], less than 1 µM. Further, the “Selectivity CB2” value in assay [2] came out at 4.46 fold.
Turning to `CCCCCc1cc(O)c(C/C=C(\C)CCC=C(C)C)c2c1C(=O)OC(CC(C)=O)(c1ccccc1)O2` (stereo not drawn) [Compound 12, 8-(3,7-dimethylocta-2,6-dien-1-yl)-7-hydroxy-2-(2-oxopropyl)-5-pentyl-2-phenyl-4H-benzo[d][1,3]dioxin-4-one], the IC50 in assay [1] fell in the range of 2.5 to 4.99 µM. Also, in assay [2], the IC50 is less than 1 µM and the “Selectivity CB2” value is recorded as 4.31 fold.
Regarding `CCCCCc1cc(O)c(C/C=C(\C)CCC=C(C)C)c2c1C(=O)OC(CC(C)=O)O2` (stereo not drawn) [Compound 14, 8-(3,7-dimethylocta-2,6-dien-1-yl)-7-hydroxy-2-(2-oxopropyl)-5-pentyl-4H-benzo[d][1,3]dioxin-4-one], the concentration for half-maximal inhibition (IC50) in assay [1] (setting [3]) fell in the range of 2.5 to 4.99 µM; in assay [2] (setting [4]), 1 to 2.49 µM. For the same compound, the “Selectivity CB2” value in assay [2] is recorded as 2.64 fold.
The corresponding values for `CCCCCc1cc(O)c(C/C=C(\C)CCC=C(C)C)c2c1C(=O)OC(CC)O2` (stereo not drawn) [Compound 16, 8-(3,7-dimethylocta-2,6-dien-1-yl)-2-ethyl-7-hydroxy-5-pentyl-4H-benzo[d][1,3]dioxin-4-one] are 2.5 to 4.99 µM, 1 to 2.49 µM and 2.04 fold.
For `CCCCCc1cc(O)c(C/C=C(\C)CCC=C(C)C)c2c1C(=O)OC(CC(C)=O)(c1ccc(OC)cc1)O2` (stereo not drawn) [Compound 17, 8-(3,7-dimethylocta-2,6-dien-1-yl)-7-hydroxy-2-(4-methoxyphenyl)-2-(2-oxopropyl)-5-pentyl-4H-benzo[d][1,3]dioxin-4-one], the IC50 in assay [1] (setting [3]) is 2.5 to 4.99 µM; in assay [2] (setting [4]), less than 1 µM. Besides, the “Selectivity CB2” value in assay [2] is given as 5.45 fold.
In assay [1], `CCCc1cc(O)c(C/C=C(\C)CCC=C(C)C)c2c1C(=O)OCO2` [Compound 18, 8-(3,7-dimethylocta-2,6-dien-1-yl)-7-hydroxy-5-propyl-4H-benzo[d][1,3]dioxin-4-one] gave an IC50 of more than 5 µM. Further, in assay [2], the IC50 was 1 to 2.49 µM and the “Selectivity CB2” value is given as 3.88 fold.
The corresponding values for `CCCc1cc(O)c(C/C=C(\C)CCC=C(C)C)c2c1C(=O)OC(c1ccccc1)O2` (stereo not drawn) [Compound 19, 8-(3,7-dimethylocta-2,6-dien-1-yl)-7-hydroxy-2-phenyl-5-propyl-4H-benzo[d][1,3]dioxin-4-one] are more than 5 µM, 1 to 2.49 µM and 3.92 fold.

(Values after patent US12617765B2, “Cannabinoid derivatives” (CANOPY GROWTH CORPORATION, priority 2019, dated 2026).)
